Laboratory results reported in patent US20240102060A1, “ENZYMES AND METHODS FOR FERMENTATIVE PRODUCTION OF MONOTERPENE ESTERS” (ISOBIONICS B.V., priority 2020, published 2024).

What was measured:
AAT9-1-c (SEQ ID NO: 2) = test: Monoterpene and sesquiterpene alcohols tested in the presence of E. coli cells expressing AAT9-1-c; type: cell-based; conditions: E. coli cells expressing AAT9-1-c versus empty pACYCDUET-1
Method: (§1) 200 μL of those cultures was transferred to 20 mL of LB medium with the appropriate antibiotic in a 100 mL Erlenmeyer flask, and incubated at 37° C., 250 rpm until the A600 was 0.4 to 0.6. […] The next day, dodecane layer was recovered by centrifugation (10 min at 8000×g), diluted in ethyl acetate and analysed by GC FID.

[1] = Initial test of Lavandula angustifolia alcohol acyl transferases on linalool
[2] = Conversion of linalool to linalyl acetate by E. coli BL21-RIL expressing Citrus bergamia AAT variants, GC FID; type: cell-based; conditions: dodecane with 5 mM linalool (racemic), overnight at 18° C.
Method: To this end, the three different variants, and an empty pACYC-DUET-1, were introduced into chemical competent E. coli BL21-RIL (Stratagene), by heat shock transformation, and selected on LB-agar with 1% glucose and […] chloramphenicol. Transformants were transferred to 5 ml LB liquid medium with 1% glucose and 50 ug/ml chloramphenicol and grown overnight at 37° C. and 250 rpm.
as §1

Row | Molecule | conversion of the alcohol to its corresponding ester by AAT9-1-c (AAT9-1-c (SEQ ID NO: 2)) | also measured
1 | C[C@H]1CC[C@@]2(O)C(C)(C)[C@@H]3CC[C@@]2(C)[C@H]1C3 [patchoulol] | not observed to be converted | 
2 | CC1=CC(O)C2CC1C2(C)C (stereo not drawn) [verbenol] | corresponding esters could be observed | 
3 | CC(C)=CCC[C@](C)(O)[C@@H]1CC=C(C)CC1 [(−)-alpha-bisabolol] | not observed to be converted | 
4 | CC(C)=CCC/C(C)=C/CO [geraniol] | corresponding esters could be observed | 
5 | C[C@@H]1CC[C@H]2C(C)(C)[C@H]3C[C@@]12CC[C@@]3(C)O [cedrol] | not observed to be converted | 
6 | C=CC(C)(O)CCC=C(C)CCC=C(C)C (stereo not drawn) [nerolidol] | not observed to be converted | 
7 | CC1=CC[C@@H](C(C)(C)O)CC1 [alpha terpineol] | corresponding esters could be observed | 
8 | SEQ ID NO: 4: alcohol acyl transferase (AAT) from Lavandula angustifolia, internal designation 1461 (protein, listed as Lavandula angustifolia) MEIEILSKQSIKPSSLTPSQLRDFKLSFIDERIPPFYIPLILYYTFDEQTNVNQSEMSDRLKTSLADALAKFYPLAGRMKGQISVDCNDQGVLCTEAIANANVLDIVSSPDPLVLDKLIPYVTNGFVSSAQEQLAIQITSFNCGGISIGICFSHRIADASTLSSFIKYWAATACRDRISAVSPVFNSATLFPPRNTPDFTPNPTSPSVRPLAPNLVIKRFLFSSQSINAMKLEVSRNSRILNPTRVEVVTALIWNRCVVAKGIERSNRSVAYHTLNLRGKIPALSERSFGNLFQMIKVESEAETTWILLVEKLRSAFEGFDVKKQLLGEKGFENAKENFMEISQLLRAGNVEVFRFSSYCRLAVYEADFGWGKPVWVSNSCYRNKNCVFLFDSVGSRGGIEAWIVMSERDMERLEQDLEFKRFASF |  | linalool as a substrate [1]: may not prefer linalool as a substrate
9 | SEQ ID NO: 3: alcohol acyl transferase (AAT) from Lavandula angustifolia, internal designation 10056 (protein, listed as Lavandula angustifolia) MEIETRVISTEIIKPSSPTPKFLQNHRLSFLDQIAPPIFMPVVYFYESNTKFPNSQQSNHLKNSLSQVLTKFYPLAGRLVGNLYVDCDDGGVPFVEAEANFDLSQIITNPNPRNMSKFLPYNESHDFCMAVQATYFRCGGVAVGLLVSHKIADALSFFLFANFWSAVARSGEGGGGQPPKFDVATYFPPRDISGYEPSTGIMKEEITTRIFTFSDKKIAVLREKYAATGSGGDGDLPQRRPTRVEALSAFIWTRFINSTGVKSDPNKIYTVMHAVNLRTRTDPPLTEYHFGNISRLAIANPDVGESGVTDGGVELMQRVREAIKAVDGAYVADLKEGEKHLSLMREKMAQANKGELVSFSFTSLCRFPLYDADFGWGKPVWVGSAGFAYKNLVTFMDTRDGDGIEAWIHSRREDMEKFEVDLELQDFLSHDKSSLISLV |  | linalool as a substrate [1]: may not prefer linalool as a substrate
10 | AAT9-1-c: alcohol acyl transferase (AAT) from Citrus bergamia, variant AAT9-1-c, amino acid sequence SEQ ID NO: 2 (protein, listed as Citrus bergamia) MKIDVETISREMIKPSTPTPNHLRHYQFSHLDQIGPPFYISLLYFYHLDDDKLVSNNRHLFSDSLKSSLSNVLTKYYPLAGRIKNNYVDCNDEGVFFSEAKVSCQLSEIINEPEFPSEFKKLLPFDQEKDVVSFDSLAIAIQVNMFNCGNVAVAVMISHKIADGSSLSTFTKNWAAAARGESENVFPEFVAARLFPPEDAGGGSGTSFDPRPKKVVLKKFLFEGSKITALRDKYGFDNRIYPTRVEALSAFLWSRLAASNRIKVSSERPCMLIHAVNLRKRVEPQLPADSFGNLFAFAVTVLDENDDDGMVNKFRDAISKIDKDYLKAKKVEHSELIDLGITNGEKFGGGELGYCIISSLCKFPVYEADFGLGKPTWVAWGCFPYKNVIHFIDAKSGDGIEVWVHLEKEVMAKFENDQELLAYVST |  | conversion of linalool to linalyl acetate [2]: linalool was converted to linalyl acetate
11 | AAT9-1-a: inactive variant of the alcohol acyl transferase from Citrus bergamia, Tryptophan at position 371, SEQ ID NO: 6 (protein, listed as Citrus bergamia) MKIDVETISREMIKPSTPTPNHLRHYQFSHLDQIGPPFYISLLYFYHLDDDKLVSNNRHLFSDSLKSSLSNVLTKYYPLAGRIKNNYVDCNDEGVFFSEAKVSCQLSEIINEPEFPSEFKKLLPFDQEKDVVSFDSLAIAIQVNMFNCGNVAVAVMISHKIADGSSLSTFTKNWAAAARGESENVFPEFVAARLFPPEDAGGGSGTSFDPRPKKVVLKKFLFEGSKITALRDKYGFDNRIYPTRVEALSAFLWSRLAASNRIKVSSERPCMLIHAVNLRKRVEPQLPADSFGNLFAFAVTVLDENDDDGMVNKFRDAISKIDKDYLKAKKVEHSELIDLGITNGEKFGGGELGYCIISSLCKFPVYEADFWLGKPTWVAWGCFPYKNVIHFIDAKSGDGIEVWVHLEKEVMAKFENDQELLAYVST |  | conversion of linalool to linalyl acetate [2]: could not be observed
12 | AAT9-2-a: inactive variant of the alcohol acyl transferase from Citrus bergamia, SEQ ID NO: 8 (protein, listed as Citrus bergamia) MKISVETISREMIKPSTPTPNHLRHYHFSYLDQTAPPLYMSLLYFYHLDDHKLVSNNNHLFINSLKSSLSNVLTKYYPLAGRVKNNYVDCNDEGVVFSEAKVSCLLSEIINELPSEFNKLHPFDQEKDVVSINGLPIAIQVNMFNCGSVAIAVMIFHKIADAASLITFTKNWAAAARGGSGNVFPEFVAARLFPPQDAGGSSGVSVDPRPKKIVLKKFLFEGPKITALRDKYGLDNGIYPTRVEALSAFIWSRLAASTRIKISPERPYMLVHLVNLRKRMEPPLPDDSFGNIIGAAVTVLEENDDDDRMVNKFRDAICKVDKDYLKVMKLEHSELTDLVITNGEIVDRGELGYCFFSSLCKFPVYEADFGLGKPMWVAWGRLPYKNIIHLIDTKSGDGIEAWIHLEEEVMAKFGNDQELLAYVSP |  | conversion of linalool to linalyl acetate [2]: could not be observed
